From ChEMBL document CHEMBL1201862, “PubChem BioAssay data set” (2004)
Where a name gives a salt, the structure may show the parent alone.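 48-hour exposure; five concentrations; linearly interpolated endpoints. GI50: concentration for 50% inhibition of growth.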 Activity calls are given as the source filed them. Rule as the data show it: active = GI50 up to about 1.1 µM and inactive = higher.

Key:
Test in all cases: DTP human tumour cell line panel, 48 h
DLD-1 = system: DLD-1
DMS-273 = system: DMS-273
HOP-18 = system: HOP-18
KM-20L2 = system: KM-20L2
LXFL 529 = system: LXFL 529
RXF 631 = system: RXF 631
SNB-78 = system: SNB-78
Hs-578T = system: Hs-578T
MDA-MB-435 = system: MDA-MB-435

Measured: GI50

O=C1/C(=C/c2ccccc2)CCCC/C1=C\c1ccccc1
inactive: DLD-1 34.2 µM | DMS-273 47.1 µM | HOP-18 > 100 µM | KM-20L2 31 µM | LXFL 529 55.2 µM | RXF 631 52.8 µM | SNB-78 > 100 µM

CCOC(=O)C(=CNC(Cc1c[nH]c2ccccc12)C(=O)OC)C(=O)OCC (stereo not drawn)
inactive: DLD-1 > 100 µM | HOP-18 92 µM | KM-20L2 > 100 µM | LXFL 529 > 100 µM | RXF 631 > 100 µM | SNB-78 > 100 µM

Cc1ccc(N(C(=O)CC(=O)NN)C(=O)c2ccccc2Cl)cc1
inactive: DLD-1 > 100 µM | DMS-273 > 100 µM | HOP-18 > 100 µM | KM-20L2 > 100 µM | LXFL 529 > 100 µM | RXF 631 > 100 µM | SNB-78 > 100 µM

CCC(O)(c1ccc(OC)cc1)C(c1ccc(OCc2ccccc2)cc1)c1ccc(OCc2ccccc2)cc1 (stereo not drawn)
inactive: DLD-1 > 100 µM | DMS-273 > 100 µM | KM-20L2 > 100 µM | LXFL 529 > 100 µM | RXF 631 > 100 µM | SNB-78 > 100 µM

C#CCOc1c(C(=O)OCC)c(=O)n(C)c2ccccc12
inactive: DLD-1 > 100 µM | HOP-18 > 100 µM | KM-20L2 > 100 µM | LXFL 529 > 100 µM | RXF 631 > 100 µM | SNB-78 > 100 µM

CC1=Nc2c(ccc3c2C(=O)c2ccccc2C3=O)NC(c2ccncc2)C1 (stereo not drawn)
inactive: DLD-1 29.4 µM | DMS-273 > 10 µM | HOP-18 > 10 µM | KM-20L2 > 10 µM | LXFL 529 > 10 µM | RXF 631 36.6 µM | SNB-78 > 10 µM

COC(=O)CC(c1ccccc1)C1(c2ccccc2)SCCS1 (stereo not drawn)
inactive: DLD-1 > 290 µM | DMS-273 104 µM | HOP-18 > 290 µM | KM-20L2 > 290 µM | LXFL 529 92.7 µM | RXF 631 161 µM

O=C(N/C(=C\c1cccc([N+](=O)[O-])c1)c1nc2c(O)nc(S)nc2[nH]1)c1ccccc1
inactive: DLD-1 > 100 µM | HOP-18 > 100 µM | KM-20L2 > 100 µM | LXFL 529 58.5 µM | RXF 631 > 100 µM | SNB-78 > 100 µM

COC(=O)C(Cc1nc2ccc(Cl)cc2nc1O)C(=O)C(=O)Nc1ccccc1[N+](=O)[O-] (stereo not drawn)
inactive: DLD-1 > 100 µM | DMS-273 > 100 µM | HOP-18 93.8 µM | KM-20L2 > 100 µM | LXFL 529 > 100 µM | RXF 631 > 100 µM | SNB-78 > 100 µM

C=CCC1(CN(C)C)CC/C(=C\c2ccc3c(c2)OCO3)C1=O (stereo not drawn)
inactive: DLD-1 27.7 µM | DMS-273 47.6 µM | HOP-18 > 100 µM | KM-20L2 28.9 µM | LXFL 529 34.5 µM | RXF 631 25.4 µM | SNB-78 > 100 µM

OCC(O)COc1c(Cl)cc(Cl)cc1Cl (stereo not drawn)
inactive: DLD-1 > 59.7 µM | DMS-273 > 100 µM | HOP-18 > 100 µM | KM-20L2 > 100 µM | LXFL 529 > 90.8 µM | RXF 631 > 100 µM | SNB-78 > 100 µM

CC1(C)COC(c2ccc(C(F)(F)F)cc2C(O)c2ccc3ccccc3c2)=N1 (stereo not drawn)
inactive: DLD-1 > 10 µM | DMS-273 > 10 µM | HOP-18 > 10 µM | KM-20L2 > 10 µM | LXFL 529 > 10 µM | RXF 631 > 100 µM | SNB-78 89.3 µM

CC(=O)N(O)CCCCCNC(=O)CCC(=O)N(O)CCCCCNC(=O)CCC(=O)N(O)CCCCCN [DEFEROXAMINE HYDROCHLORIDE]
inactive: DLD-1 45.3 µM | DMS-273 28.2 µM | HOP-18 12.7 µM | Hs-578T > 100 µM | KM-20L2 17.8 µM | LXFL 529 36.4 µM | MDA-MB-435 > 78.5 µM | RXF 631 26.9 µM | SNB-78 > 100 µM
